Each structure is given as a SMILES string.

For one test, the system named is SF-295. The experiment in a line: CellTiter-Glo cell growth assay. It is filed as cell-based, human. The note with it: SF-295, BRAF wild-type glioblastoma, elevated pAKT; 10 μmol/L to 0.0003 μmol/L. How it is done:
(§1) In order to determine whether Compound 106 resistance is associated with constitutive AKT phosphorylation as a result of activation of the PI3K signaling pathway, a panel of 10 BRAF mutated melanoma cell lines and a BRAF wild-type glioblastoma cancer cell line, SF-295, were tested using different concentrations of Compound 106 ranging from 10 μmol/L to 0.0003 μmol/L.
(§2) All assays were performed in a 96 well format. For these cell lines, protein lysates were collected in a separate experiment, which allowed for the evaluation of the constitutive level of AKT phosphorylation and correlation between the level of phosphorylated AKT (pAKT) and Compound 106 sensitivity. Cell growth was assessed using CellTiter-Glo® Luminescent Cell Viability Assay (Promega). Phosphorylated AKT protein was analyzed by Western blotting, with total AKT being used as a loading control.

The subject of another test is SK-MEL-24. Kind of test: MTS cell growth inhibition assay. It is filed as cell-based. The note with it: Homo sapiens, 96 h, SK-MEL-24 melanoma, BRAF mutated, four days. The method, then:
(§3) Cell growth inhibition following treatment with a zearalenone analog compound, Compound 106, was assessed in a panel of cancerous cell lines from different tissue types, which carry mutations in BRAF and/or RAS. A panel of 21 cell lines was tested with varying concentrations of Compound 106. All assays were performed in a 96 well format. Cell viability was assessed after four days following treatment. Cell viability was assessed with a MTS Assay (CellTiter96®AqueousOne Solution Cell Proliferation Assay, Promega) in a panel of cell lines carrying no mutations or various BRAF (V600E) and/or RAS mutations to determine the effect of BRAF and RAS genotype on drug sensitivity.

Another test relates to SK-MEL-28. The experiment in a line: MTS cell growth inhibition assay. The class given is cell-based. The note with it: Homo sapiens, 96 h, SK-MEL-28 melanoma, BRAF mutated, four days. The method, then:
as §3

A further test relates to HT-29. The experiment in a line: MTS cell growth inhibition assay. It is filed as cell-based. The following applies: Homo sapiens, 96 h, HT-29 colorectal, BRAF mutated, four days. How it is done:
as §3

The test system of another test is SK-MEL-3. Kind of test: MTS cell growth inhibition assay. It is filed as cell-based. The following applies: Homo sapiens, SK-MEL3, 96 h, SK-MEL-3 melanoma, BRAF mutated, four days. The method, then:
as §3

The next test concerns Colo-205. The experiment in a line: MTS cell growth inhibition assay. The class given is cell-based. The note with it: Homo sapiens, 96 h, Colo-205 colorectal, BRAF mutated, four days. The method, then:
as §3

The subject of the next test is DU4475. Kind of test: MTS cell growth inhibition assay. It is filed as cell-based. The note with it: Homo sapiens, DU-4475, 96 h, DU4475 breast, BRAF mutated, four days. The method, then: as §3
A further test concerns MDA-MB-435. The experiment in a line: MTS cell growth inhibition assay. The class given is cell-based. The following applies: Homo sapiens, 96 h, MDA-MB-435 breast, BRAF mutated, four days. The method, then: as §3
The next test deals with RPMI-7951. The experiment in a line: CellTiter-Glo cell growth assay. The class given is cell-based. The note with it: RPMI-7951, BRAF mutated melanoma, elevated pAKT; 10 μmol/L to 0.0003 μmol/L. How it is done: as §1, §2
For orientation: ATP-based viability assays read luminescence as a measure of living cells.

The subject of test [1] is wildtype xenograft models (pancreatic cell lines). The experiment in a line: Other xenograft models, wildtype. It is filed as in vivo, mice. The following applies: 40 mg/kg i.v. QD×5 for 2 weeks. The method, then: Additionally, one, five, and seven out of eight animals in the groups treated with Compound 106 at doses of 10, 20, or 40 mg/kg, respectively, were tumor-free at the end of the study on day 59. […] Compound 106 was also tested in other xenograft models, in which BRAF-mutated cells, including breast, colon, and melanoma cell lines, or wildtype cells, including pancreatic cell lines, were transplanted subcutaneously into female nude mice. Compound 106 or a vehicle control was administered intravenously.

Test [2] has as its system LOX human melanoma xenografts. Kind of test: Immunohistochemistry of LOX xenografts after single dosing. The class given is in vivo, mice. The following applies: single 40 mg/kg i.v. The method, then: LOX human melanoma cells, which carry the V600E BRAF mutation, were originally obtained from the DCTD Tumor Repository (Frederick, Md.). The cells were grown in monolayer cultures in DCTD-recommended growth media at 37° C. in a 5% CO2 humidified incubator. On the day of subcutaneous (s.c.) injections of the cells, growth medium was removed, flasks were washed with PBS, and cells were collected with trypsinization. The cells were washed and collected by centrifugation, and then resuspended in ice-cold PBS at a concentration of 1×10^7 cells/mL. The cells (1×10^6 cells) were inoculated s.c. in female athymic NU/NU mice near the right axillary area using a 27-gauge needle with a volume of 0.1 mL, and allowed to grow. Compound 106 was administered intravenously (i.v.) on a single dosing at the dosage level of 40 mg/kg with a volume of injection 0.1 mL per 10 g body weight. Then, the mice were euthanized at different time points including 0, 1, 2, 4, 8, 12, 24, 48, 72 h after dosing. The tumor tissue was dissected and fixed with 10% formalin for immunohistochemistry.
For immunohistochemical detection of phospho-ERK 1/2, rabbit mAb 20011 was used at a final concentration of […] (Cell Signaling, Cat. No. 4376). This mAb detects endogenous levels of p44 and p42 MAP Kinase (ERK1 and ERK2) when dually phosphorylated at Thr202 and Tyr204 of ERK1 (Thr185 and […] of ERK2), and singly phosphorylated at Thr202. Conditions were essentially as described in IHC Procedure (2), with incubation overnight (18 hr) at 4° C. and EDTA retrieval buffer. Secondary reagent was goat anti-rabbit antibody, conjugated to alkaline phosphatase.
For immunohistochemical detection of phospho-RB, anti-phospho-Retinoblastoma (pSer780) antibody (Sigma, Cat. No. R6275) was used (Table 10). Conditions were as described in IHC Procedure (1), with incubation for one hour at room temperature and EDTA retrieval buffer. Secondary reagent was anti-rabbit antibody, conjugated to horseradish peroxidase.

Broadly, the IC50 is the concentration needed to halve the response being measured. On to `CCNc1cc(O)c2c(c1)/C=C/C[C@H](O)[C@H](O)C(=O)/C=C\[C@@H](C)[C@H](C)OC2=O` [Compound 106], for which the “Sensitivity of cell line” value with SF-295 and with RPMI-7951 was “resistant” each time. Moreover, the IC50 with SK-MEL-24, with SK-MEL-28, in the test on HT-29, with SK-MEL-3, with Colo-205 and in the test on DU4475 was less than 100 nM throughout. Moreover, the IC50 with MDA-MB-435 is less than 100 nM. In test [1], the tumor regression was 30-40%. In test [2], the “Time for phospho-ERK staining to recover to baseline levels” value is no more than 24 h. The “Phospho-ERK staining (IHC)” value in [2] (8 hour time-point) is “essentially no observable staining”. Also, in [2] (between 24 and 48 hours, through 72 hours), the “Ki67 staining (IHC)” value is given as “suppressed to below detection”. Further, in test [2] (between 48 and 72 hours), the “phospho-pRB level (IHC)” value is listed as “suppressed to below detection”.

These data come from patent US20160291027A1, “METHODS FOR […] ABILITY OF A Z[…] COMPOUND TO TREAT CANCER” (Eisai R&D Management Co., Ltd., priority 2007, published 2016).
